From article PMC11470957, “Principles of paralog-specific targeted protein degradation engaging the C-degron E3 KLHDC2” (Nature Communications, 2024)
Where “and” joins values, the source holds several entries; their conditions need not be identical. Identical values can stand only once.

How the values were obtained:
KLHDC2 = biological target: T1, KLHDC2 (Homo sapiens, UniProt Q9Y2U9); test: Western blot of KLHDC2 levels after cellular dosing
T1 sequence (Q9Y2U9 1-406): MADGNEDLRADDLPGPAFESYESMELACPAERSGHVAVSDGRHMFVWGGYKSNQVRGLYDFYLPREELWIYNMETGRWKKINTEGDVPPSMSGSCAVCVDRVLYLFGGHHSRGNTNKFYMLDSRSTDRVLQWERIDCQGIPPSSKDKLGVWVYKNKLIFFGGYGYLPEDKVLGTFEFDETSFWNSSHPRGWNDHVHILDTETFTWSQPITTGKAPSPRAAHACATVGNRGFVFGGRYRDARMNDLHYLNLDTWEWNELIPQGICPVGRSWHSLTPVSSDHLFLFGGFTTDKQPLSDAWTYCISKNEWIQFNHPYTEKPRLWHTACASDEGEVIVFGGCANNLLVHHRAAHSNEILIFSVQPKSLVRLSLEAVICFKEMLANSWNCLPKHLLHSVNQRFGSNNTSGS

BRD3 = BRD3 (Homo sapiens, UniProt Q15059); test: Western blot of BRD3 levels after cellular dosing
BRD3, sequence (Q15059 whole entry): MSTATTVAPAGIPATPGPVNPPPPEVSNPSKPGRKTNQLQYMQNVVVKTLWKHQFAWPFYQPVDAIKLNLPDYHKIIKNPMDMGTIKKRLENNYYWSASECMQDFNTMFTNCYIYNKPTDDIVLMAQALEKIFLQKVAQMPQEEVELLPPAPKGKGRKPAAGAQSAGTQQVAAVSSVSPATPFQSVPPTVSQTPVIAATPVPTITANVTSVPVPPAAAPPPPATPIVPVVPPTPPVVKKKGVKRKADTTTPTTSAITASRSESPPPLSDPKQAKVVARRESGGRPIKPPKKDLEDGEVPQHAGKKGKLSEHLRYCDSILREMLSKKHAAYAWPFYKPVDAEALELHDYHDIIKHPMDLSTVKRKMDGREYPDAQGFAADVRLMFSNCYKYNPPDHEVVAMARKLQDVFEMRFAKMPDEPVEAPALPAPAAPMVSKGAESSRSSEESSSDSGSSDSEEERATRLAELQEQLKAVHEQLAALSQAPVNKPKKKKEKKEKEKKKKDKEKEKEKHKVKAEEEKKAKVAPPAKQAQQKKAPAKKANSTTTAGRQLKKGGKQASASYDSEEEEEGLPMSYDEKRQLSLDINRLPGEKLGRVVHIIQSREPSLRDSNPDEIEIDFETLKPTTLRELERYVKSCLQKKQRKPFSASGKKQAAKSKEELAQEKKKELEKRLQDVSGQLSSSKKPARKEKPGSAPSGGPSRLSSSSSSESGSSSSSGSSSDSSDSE

[1] = Fig S6b, MDA-MB468 Cells, 10 uM

`Cc1sc2c(c1C)C(c1ccc(Cl)cc1)=N[C@@H](CC(=O)N1CCN(CCOc3cccc4ccc(-c5nc(CC(=O)NCC(=O)O)cs5)cc34)CC1)c1nnc(C)n1-2` [SJ46421] was tested, and the “KLHDC2 level, Western blot quantification” value (KLHDC2; Fig 6b, KO/Rescue, 5 uM, DMSO printed 0) was 0, the “KLHDC2 level, Western blot quantification (DMSO = 100)” value (“KLHDC2 level … (DMSO = 100)” for short) (KLHDC2; Fig 6b, U2OS, 5 uM) was 103.737 and 122.001 and the “KLHDC2 level … (DMSO = 100)” value (KLHDC2; Fig S6a, 293T cells, 2.5 uM) was 109.414 and 102. The “KLHDC2 level … (DMSO = 100)” value (KLHDC2; Fig S6a, 293T cells, 5 uM) was 112.068 and 103, the “KLHDC2 level … (DMSO = 100)” value (KLHDC2; [1]) was 128.202 and 120 and the “BRD3 level, Western blot quantification (DMSO = 100)” value (from here on “BRD3 level”) (BRD3; Fig 6b, KO/Rescue, 5 uM) was 107.446 and 99.4453. For the same compound, the “BRD3 level” value (BRD3; Fig 6b, U2OS, 5 uM) was 111.974 and 117.271, the “BRD3 level” value (BRD3; Fig S6a, 293T cells, 2.5 uM) was 78.3969 and 86.4266 and the “BRD3 level” value (BRD3; Fig S6a, 293T cells, 5 uM) was 73.4789 and 84.2355. The “BRD3 level” value (BRD3; [1]) was 61.0904 and 82.4759 and the “BRD degradation activity in U2OS cells” value (BRD3; wild-type U2OS, 24 h dose, Fig 6b) was “inactive”.
